{"source": "PubChem BioAssay (NCI)", "experiment_in_all_cases": "growth of human tumour cells (NCI), 48 h", "key": {"M14 melanoma": {"system": "M14 melanoma"}, "SK-MEL-28 melanoma": {"system": "SK-MEL-28 melanoma"}, "NCI-H460 lung": {"system": "NCI-H460 lung"}, "K-562 leukemia": {"system": "K-562 leukemia"}, "786-0 renal": {"system": "786-0 renal"}, "MALME-3M melanoma": {"system": "MALME-3M melanoma"}, "HOP-62 NSCLC": {"system": "HOP-62 NSCLC"}, "MCF7 breast": {"system": "MCF7 breast"}, "MDA-MB-435": {"system": "MDA-MB-435"}, "LOX IMVI melanoma": {"system": "LOX IMVI melanoma"}, "MOLT-4 leukemia": {"system": "MOLT-4 leukemia"}, "OVCAR-8 ovarian": {"system": "OVCAR-8 ovarian"}, "T-47D breast": {"system": "T-47D breast"}, "SF-268 CNS": {"system": "SF-268 CNS"}, "EKVX NSCLC": {"system": "EKVX NSCLC"}, "ACHN renal": {"system": "ACHN renal"}, "SK-MEL-2 melanoma": {"system": "SK-MEL-2 melanoma"}, "A498 renal": {"system": "A498 renal"}, "CAKI-1 renal": {"system": "CAKI-1 renal"}, "SK-OV-3 ovarian": {"system": "SK-OV-3 ovarian"}, "SN12C renal": {"system": "SN12C renal"}, "UACC-257 melanoma": {"system": "UACC-257 melanoma"}, "UACC-62 melanoma": {"system": "UACC-62 melanoma"}, "RPMI-8226 leukemia": {"system": "RPMI-8226 leukemia"}, "IGROV1 ovarian": {"system": "IGROV1 ovarian"}, "SNB-19 CNS": {"system": "SNB-19 CNS"}, "OVCAR-3 ovarian": {"system": "OVCAR-3 ovarian"}, "MDA-MB-468 breast": {"system": "MDA-MB-468 breast"}, "UO-31 renal": {"system": "UO-31 renal"}}, "note": "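Five compound concentrations were applied to cells in 96-well plates for 48 hours; endpoints were derived by simple linear interpolation of the resulting dose-response curve. GI50: concentration for 50% inhibition of growth. The concentration for full growth arrest is given as TGI.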"}
{"compound": "CN1CCN(c2ccc(C(=O)/C=C/c3cc(C(F)(F)F)ccc3Cl)cc2)CC1", "values": [{"measurement": "GI50", "setting": "M14 melanoma", "result": 3.13, "unit": "µM"}, {"measurement": "TGI", "setting": "M14 melanoma", "result": 10.9, "unit": "µM"}, {"measurement": "GI50", "setting": "SK-MEL-28 melanoma", "result": 10.5, "unit": "µM"}, {"measurement": "TGI", "setting": "SK-MEL-28 melanoma", "result": 22.3, "unit": "µM"}, {"measurement": "GI50", "setting": "NCI-H460 lung", "result": 8.73, "unit": "µM"}, {"measurement": "TGI", "setting": "NCI-H460 lung", "result": 22.3, "unit": "µM"}, {"measurement": "GI50", "setting": "K-562 leukemia", "result": 2.17, "unit": "µM"}, {"measurement": "TGI", "setting": "K-562 leukemia", "result": "> 100", "unit": "µM"}, {"measurement": "GI50", "setting": "786-0 renal", "result": 2.22, "unit": "µM"}, {"measurement": "TGI", "setting": "786-0 renal", "result": 5.74, "unit": "µM"}, {"measurement": "GI50", "setting": "MALME-3M melanoma", "result": 11.2, "unit": "µM"}, {"measurement": "TGI", "setting": "MALME-3M melanoma", "result": 23.4, "unit": "µM"}, {"measurement": "GI50", "setting": "HOP-62 NSCLC", "result": 13.9, "unit": "µM"}, {"measurement": "TGI", "setting": "HOP-62 NSCLC", "result": 29.7, "unit": "µM"}, {"measurement": "GI50", "setting": "MCF7 breast", "result": 1.42, "unit": "µM"}, {"measurement": "TGI", "setting": "MCF7 breast", "result": 2.94, "unit": "µM"}, {"measurement": "GI50", "setting": "MDA-MB-435", "result": 2.14, "unit": "µM"}, {"measurement": "TGI", "setting": "MDA-MB-435", "result": 5.06, "unit": "µM"}, {"measurement": "GI50", "setting": "LOX IMVI melanoma", "result": 1.63, "unit": "µM"}, {"measurement": "TGI", "setting": "LOX IMVI melanoma", "result": 2.99, "unit": "µM"}, {"measurement": "GI50", "setting": "MOLT-4 leukemia", "result": 4.94, "unit": "µM"}, {"measurement": "TGI", "setting": "MOLT-4 leukemia", "result": 93.6, "unit": "µM"}, {"measurement": "GI50", "setting": "OVCAR-8 ovarian", "result": 9.04, "unit": "µM"}, {"measurement": "TGI", "setting": "OVCAR-8 ovarian", "result": 26.2, "unit": "µM"}, {"measurement": "GI50", "setting": "T-47D breast", "result": 12.3, "unit": "µM"}, {"measurement": "TGI", "setting": "T-47D breast", "result": 39.8, "unit": "µM"}, {"measurement": "GI50", "setting": "SF-268 CNS", "result": 14.1, "unit": "µM"}, {"measurement": "TGI", "setting": "SF-268 CNS", "result": 37.7, "unit": "µM"}, {"measurement": "GI50", "setting": "EKVX NSCLC", "result": 5.94, "unit": "µM"}, {"measurement": "TGI", "setting": "EKVX NSCLC", "result": 19, "unit": "µM"}, {"measurement": "GI50", "setting": "ACHN renal", "result": 4.92, "unit": "µM"}, {"measurement": "TGI", "setting": "ACHN renal", "result": 16.8, "unit": "µM"}, {"measurement": "GI50", "setting": "SK-MEL-2 melanoma", "result": 17, "unit": "µM"}, {"measurement": "TGI", "setting": "SK-MEL-2 melanoma", "result": 32, "unit": "µM"}, {"measurement": "GI50", "setting": "A498 renal", "result": 17.4, "unit": "µM"}, {"measurement": "TGI", "setting": "A498 renal", "result": 32, "unit": "µM"}, {"measurement": "GI50", "setting": "CAKI-1 renal", "result": 8.23, "unit": "µM"}, {"measurement": "TGI", "setting": "CAKI-1 renal", "result": 21.2, "unit": "µM"}, {"measurement": "GI50", "setting": "SK-OV-3 ovarian", "result": 5.66, "unit": "µM"}, {"measurement": "TGI", "setting": "SK-OV-3 ovarian", "result": 18.8, "unit": "µM"}, {"measurement": "GI50", "setting": "SN12C renal", "result": 4.32, "unit": "µM"}, {"measurement": "TGI", "setting": "SN12C renal", "result": 16.4, "unit": "µM"}, {"measurement": "GI50", "setting": "UACC-257 melanoma", "result": 10.4, "unit": "µM"}, {"measurement": "TGI", "setting": "UACC-257 melanoma", "result": 23.7, "unit": "µM"}, {"measurement": "GI50", "setting": "UACC-62 melanoma", "result": 10.9, "unit": "µM"}, {"measurement": "TGI", "setting": "UACC-62 melanoma", "result": 22.8, "unit": "µM"}, {"measurement": "GI50", "setting": "RPMI-8226 leukemia", "result": 1.77, "unit": "µM"}, {"measurement": "TGI", "setting": "RPMI-8226 leukemia", "result": 4.68, "unit": "µM"}, {"measurement": "GI50", "setting": "IGROV1 ovarian", "result": 3.33, "unit": "µM"}, {"measurement": "TGI", "setting": "IGROV1 ovarian", "result": 13, "unit": "µM"}, {"measurement": "GI50", "setting": "SNB-19 CNS", "result": 8.95, "unit": "µM"}, {"measurement": "TGI", "setting": "SNB-19 CNS", "result": 21, "unit": "µM"}, {"measurement": "GI50", "setting": "OVCAR-3 ovarian", "result": 4.08, "unit": "µM"}, {"measurement": "TGI", "setting": "OVCAR-3 ovarian", "result": 14.4, "unit": "µM"}, {"measurement": "GI50", "setting": "MDA-MB-468 breast", "result": 1.59, "unit": "µM"}, {"measurement": "TGI", "setting": "MDA-MB-468 breast", "result": 3.48, "unit": "µM"}, {"measurement": "GI50", "setting": "UO-31 renal", "result": 4.09, "unit": "µM"}, {"measurement": "TGI", "setting": "UO-31 renal", "result": 16.4, "unit": "µM"}]}
